From patent US12502392B2, “DRG-MDM2-6 for use as a novel mouse double minute 2 (MDM2) inhibitor” (BAHCESEHIR UNIVERSITESI, priority 2021, dated 2025)

Columns and labels:
[1] = system: MDA-MB231 breast cancer cell line; test: MTT cell viability assay (IC50); format: cell-based; settings: Homo sapiens, MDA-MB-231; MDA-MB231 cells, single dose of treatment, 10^−9 to 10^−4 M, 570 nm absorbance, FIG. 1; read-out: IC50 (half-maximal inhibitory concentration)
Method: HCT 116 colon cancer and MDA-MB231 breast cancer cell lines are used in cell culture experiments.
Cells were treated with high-glucose DMEM medium (Biosera) supplemented with 10% FBS (Gibco) and 1× penicillin/streptomycin (Multicell). The assay was designed to contain 10,000 cells for each well of 24-well cell culture plates before being treated with inhibitors.
Compound of formula I was dissolved with DMSO as 20 mM stock. 24 hours later, the solution was diluted in DMEM with 10% FBS and final concentration of vehicle DMSO was 0.5% at maximum. Therefore, the vehicle group included 0.5% DMSO concentration in experiments. Intensive cultivation of cells causes a decrease in proliferation capacity.
The MTT cell viability assay was used to detect values of half-maximal inhibitory concentration (IC50). Different concentrations of compound of formula I ranging between 10^−9 to 10^−4 M were tested on MDA-MB231 cell lines with single dose of treatment. 570 nm absorbance values were recorded and IC50 values were calculated by dose response-inhibition curves and nonlinear regression analysis on Graphpad Prism 8 software. IC50 value of compound of formula I was determined to be […] (FIG. 1).

[2] = target: MDM2 protein (Homo sapiens, UniProt Q00987); settings: state of the art statement; cited from earlier work
MDM2 protein, sequence (Q00987 whole entry, species assumed): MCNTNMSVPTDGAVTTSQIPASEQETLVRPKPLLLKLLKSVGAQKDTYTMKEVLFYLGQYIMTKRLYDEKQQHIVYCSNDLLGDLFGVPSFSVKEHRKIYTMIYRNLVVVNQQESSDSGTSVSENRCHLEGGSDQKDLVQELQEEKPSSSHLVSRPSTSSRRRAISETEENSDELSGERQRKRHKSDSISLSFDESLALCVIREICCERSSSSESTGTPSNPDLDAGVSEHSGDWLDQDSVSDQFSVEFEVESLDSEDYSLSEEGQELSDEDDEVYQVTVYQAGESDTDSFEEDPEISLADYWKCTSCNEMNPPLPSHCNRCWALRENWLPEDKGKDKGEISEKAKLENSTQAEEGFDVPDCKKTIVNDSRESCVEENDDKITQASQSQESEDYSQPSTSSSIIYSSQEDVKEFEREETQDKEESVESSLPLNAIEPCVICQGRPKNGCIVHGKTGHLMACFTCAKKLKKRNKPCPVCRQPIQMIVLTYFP

Row | IC50 [1] [µM] | Molecule | binding affinity to MDM2 relative to a natural p53 peptide [2] [fold]
1 | 13 | O=C(CCCc1nc2ccccc2c(=O)[nH]1)NC(Cc1c[nH]c2ccccc12)C(=O)O (centres unmarked) [compound of formula I] | –
2 | – | MI-319 | 500
